# Test results as given in patent publication US9040715B2 (priority 2008, dated 2015).
# Like-named read-outs stand apart in the source and are kept apart here.
# Columns and labels:
# Assay type in all cases: cell-based
# [1] = Cytotoxicity by neutral red dye uptake after 3 days of treatment; details: human
# Description: (§1) The antiviral activity of Compounds I-8 and I-9 was assessed in a 3-day assay using the stably-expressing HCV replicon cell lines, AVA5 (sub-genomic CONI, genotype 1b) and APC103 (genomic H77, genotype la) maintained as sub -confluent cultures on 96-well plates. Antiviral activity was determined by blot hybridization analysis of intracellular HCV RNA (normalized to the level of cellular B-actin RNA in each culture sample). A 3-fold suppression of HCV RNA and less than 2-fold suppression of cellular B-actin RNA was used as the cutoff. Cytotoxicity was assessed by neutral red dye uptake after 3 days of treatment. Dose response inhibition of HCV was also determined (FIG. 6). The nucleoside analogue 2′C-methyl cytidine (2′CmeC) was used as an assay activity control. EC50, EC90 and CC50 values (+/− standard deviations [S.D.]) were calculated by linear regression analysis. EC50 and EC90 are drug concentrations at which a 2-fold, or a 10-fold depression of intracellular HBV DNA or HCV RNA (relative to the average levels in untreated cultures), respectively, was observed. CC50 is the drug concentration at which a 2-fold lower level of neutral red dye uptake (relative to the average levels in untreated cultures) was observed.
# [2] = tested on: HCV replicon cell line APC103 (genomic H77, genotype la); test: Anti-HCV activity, 3-day HCV replicon assay, blot hybridization of intracellular HCV RNA; details: for SI (CC50/EC50) / EC90: APC103; for EC50 / EC90: Hepatitis C virus; for EC50: read-out: EC50 (μM ± SD); for EC90: 10-fold depression of intracellular HCV RNA
# Description: as §1
# [3] = tested on: HCV replicon cell line AVA5 (sub-genomic CONI, genotype 1b); test: as above; details: for SI (CC50/EC50) / EC50: AVA5; for EC90 / EC50: Hepatitis C virus; for EC90: Ava5, read-out: EC90 (μM ± SD); for EC50: 2-fold depression of intracellular HCV RNA
# Description: as §1
# HCV replication = test: Effect of combination treatments on HCV replication (CalcuSyn analysis); design: key to Type of Interaction: S, synergistic; details: for EC50 / EC90: Hepatitis C virus; for EC50: read-out: Compound I-9 EC50; for EC90: read-out: Compound I-9 EC90
# From the text: Compound I-9 was utilized in combination treatments with interferon (with and without RBV), and several representative STAT—C agents including 2′CmeC (nucleoside analogue), HCV-796 (non-nucleoside polymerase inhibitor), and VX-950 (protease inhibitor) (Table 13). For these studies, the compounds were mixed at equipotent (not necessarily equimolar) concentrations based on the monotherapy EC90 values. For example, 2′CmeC and Compound I-9 were mixed at equal molar concentrations, while 10-fold more Compound I-9 was used relative to VX-950 in that combination. The mixtures were then serially diluted for dose response analysis keeping the molar ratios constant. Corresponding monotherapies were also included. # Ribavirin (RBV) was held at a constant concentration of 30 uM for all serial dilutions of this combination. The overall type of interaction as determined by analysis with CalcuSyn (Biosoft, Inc.; Cambridge, UK) for each combination is indicated next to the corresponding EC50 and EC90 values in Table 13.
# Analysis of combination therapies was performed using Calcusyn™ software (Biosoft, Inc.; Cambridge, UK). Two types of evaluations were performed (see FIG. 7). The top panels of FIG. 5 present CI-Fa (Combination Index—Fraction (of virus) affected) plots). For these plots, a combination index [CI] greater than 1.0 indicates antagonism and a CI less than 1.0 indicates synergism. Evaluations of synergy, additivity (summation), or antagonism at different levels of virus inhibition (e.g. […] (Fa=0.5) to 99% (Fa=0.99)) were performed and are provided by the plotted lines and points. Dotted lines denoting 1.96 standard deviations for significance evaluations can be added but are not included in this example for clarity of presentation. The bottom panels present conservative isobolograms. […] Three lines radiating out from the axes denote the expected (e.g., additive) EDC50, EDC75, and EDC90 values for drug combinations as calculated from the monotherapies. ED50, ED75, and ED90 values for the combinations that plot to the left (e.g., less than) of the corresponding lines indicate synergy, and values plotting to the right (e.g., greater than) of the corresponding lines indicate antagonism.
# [4] = combination with 2′CmeC, molar ratio 1:1
# [5] = combination with HCV-796, molar ratio 1:100
# [6] = combination with IFN + 30 μM RBV (RBV held constant), molar ratio 1:1
# [7] = combination with IFN, molar ratio 1:1
# [8] = combination with VX-950, molar ratio 1:10
structure (smiles),measurement,setting,value
O=C(Cn1sc2ccccc2c1=O)Nc1cccc(Oc2ccccc2)c1 [Compound I-8],CC50 at 3 days,[1]; APC103,> 100 µM
same,CC50 at 3 days,[1]; AVA5,> 100 µM
same,SI (CC50/EC50),[2],>18
same,EC50,[2],19 ± 2.3 µM
same,EC90,[2],23 ± 1.8 µM
same,SI (CC50/EC50),[3],>17
same,EC90,[3],5.6 ± 0.7 µM
same,EC50,[3],5.8 ± 3.7 µM
CC(C(=O)Nc1cccc(Oc2ccccc2)c1)n1sc2ccccc2c1=O (stereo not shown) [Compound I-9],EC50,HCV replication; None (monotherapy),2600 ± 200 nM
same,EC90,HCV replication; None (monotherapy),9100 ± 500 nM
same,EC50,HCV replication; [4],700 ± 100 nM
same,EC90,HCV replication; [4],1800 ± 200 nM
same,EC50,HCV replication; [5],100 ± 10 nM
same,EC90,HCV replication; [5],400 ± 30 nM
same,EC50,HCV replication; [6],200 ± 30 nM
same,EC90,HCV replication; [6],700 ± 100 nM
same,EC50,HCV replication; [7],300 ± 30 nM
same,EC90,HCV replication; [7],1000 ± 100 nM
same,EC50,HCV replication; [8],300 ± 20 nM
same,EC90,HCV replication; [8],700 ± 100 nM
same,Type of Interaction,HCV replication; [4],S
same,Type of Interaction,HCV replication; [5],S
same,Type of Interaction,HCV replication; [6],S
same,Type of Interaction,HCV replication; [7],S
same,Type of Interaction,HCV replication; [8],S
same,Interaction in combination treatments,"HCV replication; with interferon, ribavirin, and the STAT-C agents",interacted favorably
same,CC50 at 3 days,[1]; APC103,> 100 µM
same,CC50 at 3 days,[1]; AVA5,> 100 µM
same,SI (CC50/EC50),[2],>35
same,EC50,[2],8.5 ± 0.6 µM
same,EC90,[2],9 ± 1 µM
same,SI (CC50/EC50),[3],>42
same,EC90,[3],2.8 ± 0.3 µM
same,EC50,[3],2.4 ± 0.2 µM
